One test deals with T1, Human PD-L1/PD-1 (Homo sapiens, UniProt Q9NZQ7).
T1 construct: made in house; host or cells: HEK293T
The experiment in a line: HTRF PD-1-Ig/PD-L1-His binding assay (human PD-L1). In a few lines:
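Interaction of Fc-tagged soluble PD-1 with His-tagged soluble PD-L1 is monitored by time-resolved FRET. Donor is europium cryptate anti-Ig (1 nM final) and acceptor is APC anti-His (20 nM final). Assay buffer is dPBS with 0.1% BSA and 0.05% Tween-20.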
For orientation: TR-FRET usually uses a lanthanide donor and a delayed reading to cut background.

The target of test [1] is T2, LK35.2-hPD-L1 cells / PE-labeled PD-1-Ig (Homo sapiens, UniProt Q9NZQ7).
T2 construct: expressed in transfected cells; host or cells: LK35.2 mouse B cell line
T2 sequence (Q9NZQ7 19-290): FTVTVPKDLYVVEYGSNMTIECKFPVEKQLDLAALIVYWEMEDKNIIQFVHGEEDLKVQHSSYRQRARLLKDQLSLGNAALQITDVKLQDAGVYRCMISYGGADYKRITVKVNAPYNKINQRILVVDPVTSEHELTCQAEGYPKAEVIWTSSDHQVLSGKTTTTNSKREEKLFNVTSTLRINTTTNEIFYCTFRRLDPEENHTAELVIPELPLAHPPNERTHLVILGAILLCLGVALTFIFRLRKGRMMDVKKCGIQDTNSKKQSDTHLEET
Nature of the test: LK35.2-hPD-L1 cell binding high-content screening assay. The format is cell-based. In a few lines: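 Mouse LK35.2 B cells stably overexpressing human PD-L1 were cultured overnight in RPMI with 10% FCS, then given compound and PE-labeled human PD-1-Ig (1 nM final) for 1 h at 37 °C. After three dPBS washes, bound fluorescence was quantified by high-content imaging.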

For a further test, the target named is CMV-specific T cells (Homo sapiens, UniProt Q9NZQ7). The experiment in a line: CMV-specific T cell function assay (IFNγ secretion, ELISA). The format is cell-based. The method, then:
CMV-specific T Cell Function Assay. […] AIM-V medium (Life Technologies, Grand Island, N.Y.) supplemented with 10% heat-inactivated fetal bovine serum (FBS, Sigma, St Louis, Mo.) was used at a total volume of 200 µL/well in triplicate. The cells were cultured for 4 days at 37° C., 5% CO2 at which time culture supernatant was harvested for determination of secreted IFNγ by ELISA (OptEIA hIFNγ ELISA Kit, BD Biosciences, San Jose, Calif.).
On the technique in general: ELISA stands for enzyme-linked immunosorbent assay.

[2] abbreviates: cell line of CBA not given (LK35.2-hPD-L1 or 293T-hPD-L1), read-out: CBA IC50 value.
The mark [3] stands for this setting: read-out: CMV Recall EC50 value.

The structures appear in SMILES notation. Like-named read-outs stand apart in the source and are kept apart here. Positions of bridges follow the written chain, without caps; N, C: chain ends. Non-standard residues stand in square brackets, D forms with d. Residues, ends and D or L forms follow the SMILES beside them. ξ: configuration not given here. Phe(3,4,5-F3) = N[C@@H](Cc1cc(F)c(F)c(F)c1)C(=O)O; Pro(4R-NH2) = N[C@H]1CN[C@H](C(=O)O)C1; Bta = N[C@@H](Cc1csc2ccccc12)C(=O)O; Hyp = O=C(O)[C@@H]1C[C@@H](O)CN1; NMeF = CN[C@@H](Cc1ccccc1)C(=O)O; dNMeNle = CCCC[C@@H](NC)C(=O)O; NMeNle = CCCC[C@H](NC)C(=O)O; dPip = O=C(O)[C@H]1CCCCN1; NMeA = CN[C@@H](C)C(=O)O; dDap = NC[C@@H](N)C(=O)O; Dab = NCC[C@H](N)C(=O)O; Dap = NC[C@H](N)C(=O)O; ξP = O=C(O)C1CCCN1

Chain of CMV-specific T cells (Q9NZQ7 19-290): as above
T1 sequence (Q9NZQ7 with tags, fused parts or gaps): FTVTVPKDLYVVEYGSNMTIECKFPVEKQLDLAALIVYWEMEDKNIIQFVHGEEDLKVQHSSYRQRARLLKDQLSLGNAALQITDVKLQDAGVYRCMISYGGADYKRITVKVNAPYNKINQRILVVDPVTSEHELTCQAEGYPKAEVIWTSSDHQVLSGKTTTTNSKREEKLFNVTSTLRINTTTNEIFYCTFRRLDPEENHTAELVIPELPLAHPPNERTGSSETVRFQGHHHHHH

For `CCCC[C@H]1C(=O)N(C)[C@@H](CCCC)C(=O)N[C@@H](CN)C(=O)N[C@H](C(=O)NCC(N)=O)CSCC(=O)N[C@@H](Cc2ccc(O)cc2)C(=O)N(C)[C@@H](C)C(=O)N[C@@H](CC(=O)O)C(=O)N2CCC[C@H]2C(=O)N[C@@H](CN)C(=O)N[C@@H](CC(C)C)C(=O)N2C[C@H](O)C[C@H]2C(=O)N[C@@H](Cc2c[nH]c3ccccc23)C(=O)N[C@@H](CO)C(=O)N[C@@H](Cc2csc3ccccc23)C(=O)N1C` [Example 1163] ({CH2CO}-Y[NMeA]DP[Dap]L[Hyp]WS[Bta][NMeNle][NMeNle][Dap]CG-NH2; thioether N-14), the IC50 amounted to 6.24 nM at Human PD-L1/PD-1 (read-out: HTRF IC50 value) and 4.04 nM in test [1] (setting [2]). Moreover, the EC50 at CMV-specific T cells (setting [3]) came out at 2.93 nM.

Turning to `CCCC[C@H]1C(=O)N2CCC[C@@H]2C(=O)N2C[C@H](N)C[C@H]2C(=O)N[C@@H](C(C)C)C(=O)N(C)[C@@H](Cc2ccccc2)C(=O)N[C@@H](Cc2ccc(O)cc2)C(=O)N2CCCC[C@@H]2C(=O)N[C@@H](Cc2c[nH]c3ccccc23)C(=O)N[C@@H](Cc2ccc(O)cc2)C(=O)N[C@@H](CC(C)C)C(=O)N[C@H](C(=O)NCC(N)=O)CSCC(=O)N[C@@H](Cc2cc(F)c(F)c(F)c2)C(=O)N(C)[C@@H](Cc2ccccc2)C(=O)N1C` [Example 3194] ({CH2CO}-[Phe(3,4,5-F3)][NMeF][NMeNle][dP][Pro(4R-NH2)]V[NMeF]Y[dPip]WYLCG-NH2; thioether N-13), the IC50 came out at 4.39 nM on Human PD-L1/PD-1 (read-out: HTRF IC50 value) and 1.15 nM in test [1] (setting [2]). Also, on CMV-specific T cells (setting [3]), the EC50 worked out at 25.2 nM.

As to `CCCC[C@H]1C(=O)N(C)[C@@H](CCCC)C(=O)N[C@@H](CO)C(=O)N[C@H](C(=O)NCC(N)=O)CSCC(=O)N[C@@H](Cc2ccc(O)cc2)C(=O)N(C)[C@@H](C)C(=O)N[C@@H](CC(=O)O)C(=O)N2CCC[C@H]2C(=O)N[C@@H](CO)C(=O)N[C@@H](CO)C(=O)N2C[C@H](O)C[C@H]2C(=O)N[C@@H](Cc2c[nH]c3ccccc23)C(=O)N[C@@H](CO)C(=O)N[C@@H](Cc2c[nH]c3ccccc23)C(=O)N1C` [Example 5117] ({CH2CO}-Y[NMeA]DPSS[Hyp]WSW[NMeNle][NMeNle]SCG-NH2; thioether N-14), the IC50 at Human PD-L1/PD-1 (value given instead of cluster, read-out: HTRF IC50 value) amounted to 5.33 nM; in test [1] (cell binding assay, cell line not given, value given instead of cluster, read-out: CBA IC50 value), 6.75 nM. Further, the EC50 at CMV-specific T cells (value given instead of cluster, read-out: CMV Recall EC50 value) amounted to 103 nM.

For `CCCC[C@H]1C(=O)N[C@@H](CCCNC(=N)N)C(=O)NC(C(=O)NCC(N)=O)CSCC(=O)N[C@@H](Cc2ccc(O)cc2)C(=O)N(C)[C@@H](C)C(=O)N[C@@H](CC(N)=O)C(=O)N2CCC[C@H]2C(=O)N[C@@H](Cc2cnc[nH]2)C(=O)N[C@@H](CC(C)C)C(=O)N2C[C@H](O)C[C@H]2C(=O)N[C@@H](Cc2c[nH]c3ccccc23)C(=O)N[C@@H](CO)C(=O)N[C@@H](Cc2c[nH]c3ccccc23)C(=O)N(C)[C@@H](C)C(=O)N1C` (stereo partly drawn) [Example 9057], the IC50 was found to be 14.9 nM at Human PD-L1/PD-1 (numeric value, read-out: HTRF IC50 values) and 19.5 nM in test [1] (cell binding assay, cell line not given, numeric value, read-out: CBA IC50 values). Besides, the 50% effective concentration (EC50) on CMV-specific T cells (numeric value, read-out: CMV Recall EC50 values) is 112 nM.

For `CCCC[C@@H]1C(=O)N(C)[C@H](CCCC)C(=O)N[C@@H](C)C(=O)N[C@@H](C(=O)NCC(N)=O)CSCC(=O)N[C@@H](Cc2ccc(O)cc2)C(=O)N2CCCC2C(=O)N[C@H](CC(=O)O)C(=O)N2CCC[C@H]2C(=O)N[C@H](CN)C(=O)N[C@@H](CC(=O)O)C(=O)N2CCCC2C(=O)N[C@H](Cc2c[nH]c3ccccc23)C(=O)N[C@@H](CCN)C(=O)N[C@@H](Cc2c[nH]c3ccccc23)C(=O)N1C` (stereo partly drawn) [Example 1210] ({CH2CO}-Y[ξP][dD]P[dDap]D[ξP][dW][Dab]W[dNMeNle][dNMeNle]A[dC]G-NH2; thioether N-14), the concentration for half-maximal inhibition (IC50) was above 30.5 nM at Human PD-L1/PD-1 (cluster symbol, read-out: HTRF IC50 cluster) and above 74.3 nM in test [1] (cluster symbol, cell line of CBA not given (LK35.2-hPD-L1 or 293T-hPD-L1), read-out: CBA IC50 cluster). Also, on CMV-specific T cells (setting [3]), the EC50 was above 2500 nM.

By IC50 is commonly meant the concentration needed to halve the response being measured. For orientation: EC50 means the concentration at which the effect is half-maximal.

The values are drawn from patent US9850283B2, “Macrocyclic inhibitors of the PD-1/PD-L1 and CD80(B7-1)/PD-L1 protein/protein interactions” (BRISTOL-MYERS SQUIBB COMPANY, priority 2013, dated 2017).
